According to US11179450B2, “Long chain antigen containing interepitope sequence that promotes antigen presentation to T cells” (MIE UNIVERSITY, priority 2013, dated 2021):

Experiments:
Type in all cases: in vivo, BALB/c mice
[1] = test system: mouse fibrosarcoma cell line CMS5a; assay: Mouse tumor growth test; conditions: FIG. 2; single dose of vaccine with CpG oligo DNA before subcutaneous CMS5a implantation (prophylactic condition); Student's t test
Description: Long chain peptide antigens MEN, all containing three types of mouse CD8+ T cell epitope sequences (MA p265 (Sequence No. 27), NY p81 (Sequence No. 29), and mERK2 9m (Sequence No. 28)), were synthesized. The interepitope sequences between the respective epitopes were respectively six consecutive tyrosines (Y6) (Sequence No. 1), six consecutive glycines (G6) (Sequence No. 2), or six consecutive prolines (P6) (Sequence No. 3). Each long chain peptide antigen was complexed with CHP and administered in a single dose as a vaccine to a mouse. As a control, a short chain peptide vaccine, constituted of just the mERK2 9m peptide, was mixed with Freund's incomplete adjuvant and administered. In the process of administration, CpG oligo DNA was coadministered as an adjuvant. On the day after administration, a mouse fibrosarcoma cell line CMS5a, expressing mERK2 as a tumor antigen and presenting the CD8+ T cell epitope mERK2 9m derived from the same antigen, was implanted subcutaneously and its growth was recorded over time.
A subcloned CMS5a cell line, obtained from a CMS5 cell line isolated from fibrosarcoma induced by administering 3-methylcholanthrene to a BALB/c mouse, expresses mutant ERK2 (mERK2) as a tumor antigen and presents a CD8^+ T cell epitope derived from the mERK2. The CMS5a cell line cultured in a T75 flask (Nunc) was detached using PBS containing 0.5% trypsin and collected in RPMI1640 medium containing 10% FBS. After centrifuging (400×g, 5 minutes, 4° C.), the supernatant was removed, and the cells were rinsed twice with RPMI1640 medium, thereafter suspended in RPMI1640 medium at a concentration of 1×10^6 cells/100 μL, and implanted subcutaneously in BALB/c mice at a dose of 100 μL/individual. The CHP/long chain peptide complexes and the adjuvant were administered 7 days before tumor implantation (prophylactic condition). After tumor implantation, the length and breadth of the tumor were measured and the product thereof was recorded as tumor size. The data in the tumor growth test were compared by Student's t test using Microsoft® Excel® (Microsoft Corporation).

[2] = test system: F4/80+ cells (macrophages); assay: Uptake of FAM-labeled long chain peptide antigens in individual animals, regional lymph node macrophages; conditions: FIG. 9, complexed with CHP, subcutaneous, 16 hours after administration
Protocol: The same FAM-labeled long chain peptide antigens as those in FIG. 8 were complexed with CHP and administered subcutaneously to mice. After 16 hours, cells were collected from a regional lymph node of the administration site, and the fluorescence uptakes into dendritic cells and mouse macrophages were measured by flow cytometry with the P4 fraction in the figure being deemed to correspond to the dendritic cells and the P5 fraction in the figure being deemed to correspond to the macrophages.
A test of uptake of long chain peptide antigens by antigen-presenting cells in individual animals was performed as follows. Each long chain peptide was fluorescence-labeled, complexed with a CHP nanogel, administered subcutaneously to BALB/c mice. 16 hours after administration, cells were collected from lymph nodes and after staining with the anti-CD11c antibody and the anti-F4/80 antibody, the uptake of the fluorescence-labeled long chain peptide antigens by CD11c^+ cells (dendritic cells) and F4/80^+ cells (macrophages) was analyzed by flow cytometry.

[3] = test system: mERK2 9m specific CD8+ T cells; assay: Specific CD8+ T cell induction in mice, intracellular cytokine staining (mERK2 9m epitope)
Protocol: (§1) Long chain peptide antigens MEN, all containing three types of mouse CD8+ T cell epitope sequences (MA p265 (Sequence No. 27), NY p81 (Sequence No. 29), and mERK2 9m (Sequence No. 28)), were synthesized. The interepitope sequences between the respective epitopes were one to six consecutive tyrosines (Sequence Nos. 1 and 9-12). Vaccines containing the respective long chain peptide antigens were administered to mice in the same manner as in FIG. 1 and the frequencies of CD8+ T cells specific to the respective epitope sequences were measured by the intracellular cytokine staining method.
as §1, with “five” for “one”, “ten” for “six”, “13-15).” for “9-12).”
Each CHP/long chain peptide complex as the vaccine and the CpG oligo DNA as the adjuvant were administered at the same time to a mouse. Administration was performed by subcutaneous injection on the back of the mouse. As the dose, the CHP/long chain peptide complex was administered at 0.05 to 0.1 mg equivalent of long chain peptide per administration. The CpG oligo DNA was administered at 0.05 mg per administration. One week after the final administration, spleen cells were separated by the following procedure from each vaccine-administered mouse. The spleen was isolated from the mouse and removed of blood by rinsing with RPMI1640 medium. After the spleen was triturated using a glass slide, the released cells were collected in RPMI1640 medium. After centrifuging (400×g, 5 minutes, 4° C.), the supernatant was removed and the cells were treated for 1 minute by adding 2 mL of ACK solution. […]

Sequence: SNPARYEFLYYYYYYQYIHSANVLYYYYYYRGPESRLL (Long chain peptide antigen, containing three types of mouse CD8+ T cell epitope sequences (MA p265, NY p81, and mERK2 9m)) [MEN(Y6)]
- growth of the tumor [1]: suppressed significantly (p<0.05)
- fluorescence uptake into macrophages of the regional lymph node [2]: clearly observed
- induction of specific CD8+ T cells, mERK2 9m (second epitope) ([3]; FIG. 6, comparing one to six tyrosines): observed to some degree
- induction of specific CD8+ T cells, mERK2 9m (second epitope) ([3]; FIG. 7, comparing five to ten tyrosines): highest
